In patent US8436138B2, “Binder for C-reactive protein” (Modpro AB, priority 2006, dated 2013):

Experiment: Stability in aqueous solution
Format: physicochemical
Conditions: acidic pH (0.1% TFA)
Text: Commercially available aminohexanoic acid 2 was N,N-dimethylated^11 12 by an Eschweiler-Clarke-type procedure (treatment with formaldehyde and hydrogen/palladium/carbon), and the resulting product (3, 86%) was esterified by treatment with methanolic hydrogen chloride to give the methyl ester 4 (96%). Quartenarization was effected by reacting 4 with monomethoxytrityl-protected bromoethanol 1, forming derivative 5 (73%). Unprotected bromoethanol could also be reacted with 4, but the reaction yield was lower and the product was more difficult to detect and purify. Monomethoxytrityl protection conferred lipophilicity and TLC detectability (UV visible and acid stainable) to the crucial intermediate 5. Saponification of 5 with lithium hydroxide/water/t-butanol gave the corresponding acid 6 (95%), which was treated without isolation with p-nitrophenol and diisopropyl carbodiimide in pyridine to give the p-nitrophenyl ester 7 (86%). Brief treatment of 7 with formic acid gave the corresponding alcohol 8, which was used directly in the next step, because of its sensitivity to self-condensation. Reaction of crude 8 at 0° C. in acetonitril with first an excess of phosphorous oxychloride and triethylamine, then water gave the desired monophosphate 9 in 22% yield from 7, after HPLC purification. […]

C[N+](C)(CCCCCC(=O)Oc1ccc([N+](=O)[O-])cc1)CCOP(=O)([O-])O [Peptide 9, 6-(N,N-Dimethylamino)-N-[(2-phosphoryloxy)-ethyl]-hexanoic acid p-nitrophenyl ester]
stability in aqueous solution: stable
